Numbered stars: 1 amine (or outer) side, 2 acyl side, 3 side chain; on linkers, the order of the positions; unused ones are H or OH. Bridge positions count the residues as written; N and C are the ends. Square brackets hold non-standard residues; d marks the D form. Peptide text beside a SMILES is read from it. * marks the point of attachment. hPhe(3-Cl-4-CF3) = N[C@@H](CCc1ccc(C(F)(F)F)c(Cl)c1)C(=O)O; X131 = O=C([C@H](Cc1cccc(Br)c1F)N[*:1])[*:2]; NMePhe(4-Me) = CN[C@@H](Cc1ccc(C)cc1)C(=O)O; X72 = O=C([C@@H]1Cc2ccccc2N1[*:1])[*:2]; Phe(2-OMe) = COc1ccccc1C[C@H](N)C(=O)O; Phe(3-I) = N[C@@H](Cc1cccc(I)c1)C(=O)O; NMe4Pal = CN[C@@H](Cc1ccncc1)C(=O)O; NMeY = CN[C@@H](Cc1ccc(O)cc1)C(=O)O; NMeCha = CN[C@@H](CC1CCCCC1)C(=O)O; NMeChg = CN[C@H](C(=O)O)C1CCCCC1; NMeI = CC[C@H](C)[C@H](NC)C(=O)O; N(CH2CH2)2CF2 = FC1(F)CCN(*)CC1; Gly(cPr) = N[C@H](C(=O)O)C1CC1; NMeD = CN[C@@H](CC(=O)O)C(=O)O; NMeL = CN[C@@H](CC(C)C)C(=O)O; NMeV = CN[C@H](C(=O)O)C(C)C; NMeAbu = CC[C@H](NC)C(=O)O; Morpholide = C1CN(*)CCO1; NMeA = CN[C@@H](C)C(=O)O; NMeAib = CNC(C)(C)C(=O)O; Nle = CCCC[C@H](N)C(=O)O; Piperidide = C1CCN(*)CC1; Ac5c = NC1(C(=O)O)CCCC1; Aze = O=C(O)[C@@H]1CCN1; Ac4c = NC1(C(=O)O)CCC1; Sar = CNCC(=O)O

Among the data in US20240148821A1, “PHARMACEUTICAL USE OF CYCLIC PEPTIDE COMPOUND” (CHUGAI SEIYAKU KABUSHIKI KAISHA, priority 2021, published 2024) are IC50 values, retold here.

This experiment concerns Human pancreatic cancer cell line AsPC-1 (G12D mutation Kras). The experiment can be described thus: AsPC-1 cell growth inhibition (AsPC-1 CGI). The format is cell-based. Conditions: read-out: AsPC-1 cell growth inhibition, 50% growth inhibitory concentration (IC50 value); 96 hours, CellTiter-Glo, values classified in ranges.
Protocol: Test compounds were serially dilated with dimethyl sulfoxide, and 200 nL was then dispensed to a U-bottom 96-well plate using Labcyte Echo. […] The cell suspension was dispensed to a. plate containing a test compound at 100 μL per well and incubated at 37° C. in a 5% carbon dioxide gas incubator. 96 hours later, 80 μL of CellTiter-Glo (Promega) was added to each well and fluorescence was measured.
Take `CC(C)C[C@H]1C(=O)N[C@@H](C2CC2)C(=O)N(C)CC(=O)N(C)CC(=O)N(C)[C@@H](CC2CCCCC2)C(=O)N(C)CC(=O)N[C@@H](CCc2ccc(C(F)(F)F)c(Cl)c2)C(=O)N2CCC[C@H]2C(=O)NC2(CCCC2)C(=O)N(C)[C@@H](C(C)C)C(=O)N(C)[C@H](C(=O)N2CCCCC2)CC(=O)N1C` [Compound 533] ([NMeL][Gly(cPr)][Sar][Sar][NMeCha][Sar][hPhe(3-Cl-4-CF3)]P[Ac5c][NMeV][NMeD]-Piperidide; lactam N-11): the IC50 was above 500 nM.

Turning to `CCCC[C@@H]1NC(=O)[C@H](Cc2cccc(Br)c2F)NC(=O)CN(C)C(=O)[C@H](Cc2ccc(OC)cc2)N(C)C(=O)[C@@H]2CCN2C(=O)[C@H](C)N(C)C(=O)[C@H]([C@@H](C)CC)NC(=O)[C@H](CC)N(C)C(=O)C[C@@H](C(=O)N2CCCCC2)N(C)C(=O)[C@H](CC(C)C)NC(=O)C(C)(C)N(C)C1=O` [Compound 1304] ([NMeAbu]I[NMeA][Aze][NMeY](Me)[Sar][X131][Nle][NMeAib]L[NMeD]-Piperidide; lactam N-11), the IC50 is above 500 nM.

For the molecule `CC[C@H](C)[C@@H]1NC(=O)[C@H](CC(C)C)N(C)C(=O)C[C@@H](C(=O)N2CCCCC2)N(C)C(=O)[C@H](CC(C)C)NC(=O)C(C)(C)N(C)C(=O)[C@H](Cc2ccccc2OC)NC(=O)[C@H](Cc2cccc(I)c2)NC(=O)CN(C)C(=O)[C@H](Cc2ccc(C)cc2)N(C)C(=O)CN(C)C(=O)CN(C)C1=O` [Compound 1100] ([NMeL]I[Sar][Sar][NMePhe(4-Me)][Sar][Phe(3-I)][Phe(2-OMe)][NMeAib]L[NMeD]-Piperidide; lactam N-11), the IC50 was above 500 nM.

For `CC[C@H](C)[C@@H]1NC(=O)[C@H](CC(C)C)N(C)C(=O)C[C@@H](C(=O)N2CCCCC2)N(C)C(=O)[C@H](C2CCCCC2)N(C)C(=O)[C@@H](C)NC(=O)[C@@H]2CCCN2C(=O)[C@H](CCc2ccc(C(F)(F)F)c(Cl)c2)NC(=O)CN(C)C(=O)[C@H](CC2CCCCC2)N(C)C(=O)CN(C)C(=O)CN(C)C1=O` [Compound 917] ([NMeL]I[Sar][Sar][NMeCha][Sar][hPhe(3-Cl-4-CF3)]P[dA][NMeChg][NMeD]-Piperidide; lactam N-11), the IC50 was above 500 nM.

Turning to `CC[C@H](C)[C@@H]1NC(=O)[C@H](CC(C)C)N(C)C(=O)C[C@@H](C(=O)N2CCCCC2)N(C)C(=O)[C@H](C2CCCCC2)N(C)C(=O)C2(CCCC2)NC(=O)[C@@H]2Cc3ccccc3N2C(=O)[C@H](CCc2ccc(C(F)(F)F)c(Cl)c2)NC(=O)CN(C)C(=O)[C@H](CC2CCCCC2)N(C)C(=O)[C@@H]2CCN2C(=O)[C@H](C)N(C)C1=O` [Compound 812] ([NMeL]I[NMeA][Aze][NMeCha][Sar][hPhe(3-Cl-4-CF3)][X72][Ac5c][NMeChg][NMeD]-Piperidide; lactam N-11), the IC50 was above 500 nM.

With `CC[C@H](C)[C@@H]1NC(=O)[C@H](CC(C)C)N(C)C(=O)C[C@@H](C(=O)N2CCCCC2)N(C)C(=O)[C@H](C(C)C)N(C)C(=O)C2(CCC2)NC(=O)[C@H](CC(=O)N2CCC(F)(F)CC2)N(C)C(=O)[C@H](CCc2ccc(C(F)(F)F)c(Cl)c2)NC(=O)CN(C)C(=O)[C@H](CC2CCCCC2)N(C)C(=O)CN(C)C(=O)CN(C)C1=O` [Compound 251] ([NMeL]I[Sar][Sar][NMeCha][Sar][hPhe(3-Cl-4-CF3)][NMeD](N(CH2CH2)2CF2)[Ac4c][NMeV][NMeD]-Piperidide; lactam N-11), the IC50 was above 500 nM.

As for `CC[C@H](C)[C@@H]1NC(=O)[C@H](CC(C)C)N(C)C(=O)C[C@@H](C(=O)N2CCCCC2)N(C)C(=O)[C@H](C2CCCCC2)N(C)C(=O)C2(CCCC2)NC(=O)[C@H](Cc2ccncc2)N(C)C(=O)[C@H](CCc2ccc(C(F)(F)F)c(Cl)c2)NC(=O)CN(C)C(=O)[C@H](CC2CCCCC2)N(C)C(=O)[C@@H]2CCN2C(=O)[C@H](C)N(C)C1=O` [Compound 656] ([NMeL]I[NMeA][Aze][NMeCha][Sar][hPhe(3-Cl-4-CF3)][NMe4Pal][Ac5c][NMeChg][NMeD]-Piperidide; lactam N-11), the IC50 is above 500 nM.

For the molecule `CC[C@H](C)[C@@H]1NC(=O)[C@H](CC(C)C)N(C)C(=O)C[C@@H](C(=O)N2CCOCC2)NC(=O)[C@H]([C@@H](C)CC)N(C)C(=O)C2(CCCC2)NC(=O)[C@@H]2CCCN2C(=O)[C@H](CCc2ccc(C(F)(F)F)c(Cl)c2)NC(=O)CN(C)C(=O)[C@H](CC2CCCCC2)N(C)C(=O)CN(C)C(=O)CN(C)C1=O` [Compound 1277] ([NMeL]I[Sar][Sar][NMeCha][Sar][hPhe(3-Cl-4-CF3)]P[Ac5c][NMeI]D-Morpholide; lactam N-11), the IC50 was above 500 nM.

On to `CC[C@H](C)[C@@H]1NC(=O)[C@H](CC(C)C)N(C)C(=O)C[C@@H](C(=O)N2CCOCC2)N(C)C(=O)[C@H](C2CCCCC2)N(C)C(=O)C2(CCC2)NC(=O)[C@@H]2CCCN2C(=O)[C@H](CCc2ccc(C(F)(F)F)c(Cl)c2)NC(=O)CN(C)C(=O)[C@H](CC2CCCCC2)N(C)C(=O)CN(C)C(=O)CN(C)C1=O` [Compound 1875] ([NMeL]I[Sar][Sar][NMeCha][Sar][hPhe(3-Cl-4-CF3)]P[Ac4c][NMeChg][NMeD]-Morpholide; lactam N-11), for which the IC50 was at most 20 nM.
